Assay results as given in PMC2709273 (The Journal of pharmacology and experimental therapeutics, 2008).
“Also recorded” adds a separate entry of the source. Where two headings read alike, the source gives them in different places. Where a SMILES comes first, the peptide text is derived from it.

Experiments:
[1] = target: homomeric α7 nicotinic acetylcholine receptor expressed in X. laevis oocytes (UniProt Q05941)
α7 nAChRs [2] = target: T1, α7 nAChRs (Rattus norvegicus, UniProt Q05941); type: cell-based
T1 sequence (Q05941 23-502): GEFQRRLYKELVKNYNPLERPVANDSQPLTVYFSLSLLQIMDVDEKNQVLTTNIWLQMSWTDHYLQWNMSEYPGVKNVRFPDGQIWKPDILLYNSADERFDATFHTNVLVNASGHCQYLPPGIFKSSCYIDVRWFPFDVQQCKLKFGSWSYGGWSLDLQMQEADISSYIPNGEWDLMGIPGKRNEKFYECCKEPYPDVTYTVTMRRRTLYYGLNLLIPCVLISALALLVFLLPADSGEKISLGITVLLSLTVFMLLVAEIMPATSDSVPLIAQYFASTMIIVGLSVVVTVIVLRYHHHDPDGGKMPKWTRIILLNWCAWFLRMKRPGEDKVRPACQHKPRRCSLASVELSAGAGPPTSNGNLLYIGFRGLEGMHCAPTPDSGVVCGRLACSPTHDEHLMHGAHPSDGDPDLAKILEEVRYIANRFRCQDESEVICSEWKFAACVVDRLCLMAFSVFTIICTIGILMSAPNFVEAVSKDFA

α4β2 nAChRs = α4β2 nAChRs (Rattus norvegicus, UniProt P09483+P12390); type: cell-based
Sequence of α4β2 nAChRs (P09483 31-630): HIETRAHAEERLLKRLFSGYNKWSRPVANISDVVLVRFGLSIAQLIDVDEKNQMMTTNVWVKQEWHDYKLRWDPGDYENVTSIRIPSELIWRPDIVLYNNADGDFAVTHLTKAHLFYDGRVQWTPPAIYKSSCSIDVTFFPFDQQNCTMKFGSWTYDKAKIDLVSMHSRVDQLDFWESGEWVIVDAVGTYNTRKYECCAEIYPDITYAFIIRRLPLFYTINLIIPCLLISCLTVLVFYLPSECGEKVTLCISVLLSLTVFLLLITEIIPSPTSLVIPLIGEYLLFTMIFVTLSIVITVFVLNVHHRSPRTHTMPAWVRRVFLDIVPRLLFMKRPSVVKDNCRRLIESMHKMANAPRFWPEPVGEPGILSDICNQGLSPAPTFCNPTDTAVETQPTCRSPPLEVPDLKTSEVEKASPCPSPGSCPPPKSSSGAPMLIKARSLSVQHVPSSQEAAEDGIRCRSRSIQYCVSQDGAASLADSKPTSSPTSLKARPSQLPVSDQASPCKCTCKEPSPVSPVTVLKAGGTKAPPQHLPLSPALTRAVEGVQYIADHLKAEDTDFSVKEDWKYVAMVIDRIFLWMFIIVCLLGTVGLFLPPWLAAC
Sequence of α4β2 nAChRs (P12390 25-500): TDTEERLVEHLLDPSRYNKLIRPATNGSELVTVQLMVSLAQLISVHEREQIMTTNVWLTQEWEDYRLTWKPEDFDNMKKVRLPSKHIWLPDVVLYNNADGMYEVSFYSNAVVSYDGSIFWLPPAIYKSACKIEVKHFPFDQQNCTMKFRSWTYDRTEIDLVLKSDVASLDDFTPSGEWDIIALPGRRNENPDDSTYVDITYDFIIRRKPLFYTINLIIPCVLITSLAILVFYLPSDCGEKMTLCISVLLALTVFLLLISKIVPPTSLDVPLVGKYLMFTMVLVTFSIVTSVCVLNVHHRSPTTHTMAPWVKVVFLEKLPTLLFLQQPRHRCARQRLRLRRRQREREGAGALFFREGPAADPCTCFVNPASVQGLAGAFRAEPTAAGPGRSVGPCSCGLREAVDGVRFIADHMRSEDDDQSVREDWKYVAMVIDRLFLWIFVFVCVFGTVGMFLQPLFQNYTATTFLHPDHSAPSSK

[3] = target: native α7-containing nAChRs (rat CA1 stratum radiatum interneurons) (Rattus norvegicus, UniProt Q05941); type: cell-based
Sequence of native α7-containing nAChRs (rat CA1 stratum radiatum interneurons) (Q05941 23-502): as the sequence (Q05941 23-502) above

α2β2 nAChRs = α2β2 nAChRs (Rattus norvegicus, UniProt P12389+P12390); type: cell-based
Sequence of α2β2 nAChRs (P12389 28-511): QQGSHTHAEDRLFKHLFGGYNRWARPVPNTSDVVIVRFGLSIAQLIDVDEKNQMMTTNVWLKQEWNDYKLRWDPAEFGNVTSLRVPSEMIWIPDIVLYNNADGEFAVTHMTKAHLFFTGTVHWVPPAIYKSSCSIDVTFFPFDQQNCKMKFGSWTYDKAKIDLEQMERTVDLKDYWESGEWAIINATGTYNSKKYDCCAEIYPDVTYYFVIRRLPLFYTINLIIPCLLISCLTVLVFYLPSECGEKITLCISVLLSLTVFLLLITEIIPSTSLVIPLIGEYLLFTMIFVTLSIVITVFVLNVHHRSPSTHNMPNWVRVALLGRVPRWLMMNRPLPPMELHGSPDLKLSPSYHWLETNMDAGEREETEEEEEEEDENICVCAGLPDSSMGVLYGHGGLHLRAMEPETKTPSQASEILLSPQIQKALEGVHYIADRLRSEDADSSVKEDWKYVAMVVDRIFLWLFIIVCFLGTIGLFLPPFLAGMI
Sequence of α2β2 nAChRs (P12390 25-500): as the sequence (P12390 25-500) above

α7 nAChRs [4] = target: T1, α7 nAChRs; conditions: native and expressed receptors, cited from earlier work
[5] = heteromeric nAChRs, X. laevis oocytes

Sequence of homomeric α7 nicotinic acetylcholine receptor expressed in X. laevis oocytes (Q05941 23-502): as the sequence (Q05941 23-502) above

MARCKS_(159–165) peptide
percentage block of ACh-evoked α7 nAChR current in oocytes, peptide 1 µM [1]: 5%

KKKKKRFDFKKDFKLDGFDFKKNK [MARCKS S/D]
inhibition of ACh-evoked α7 nAChR responses (in words) (α7 nAChRs [2]; X. laevis oocytes): unable to inhibit ACh-mediated α7 nAChR responses; also recorded: lack of inhibition of nAChR responses

CC(=O)N[C@@H](CCCCN)C(=O)N[C@@H](CCCCN)C(=O)N[C@@H](CCCCN)C(=O)N[C@@H](CCCCN)C(=O)N[C@@H](CCCCN)C(=O)N[C@@H](CCCNC(=N)N)C(=O)N[C@@H](Cc1ccccc1)C(=O)N[C@@H](CO)C(=O)N[C@@H](Cc1ccccc1)C(=O)N[C@@H](CCCCN)C(=O)N[C@@H](CCCCN)C(=O)N[C@@H](CO)C(=O)N[C@@H](Cc1ccccc1)C(=O)N[C@@H](CCCCN)C(=O)N[C@@H](CC(C)C)C(=O)N[C@@H](CO)C(=O)NCC(=O)N[C@@H](Cc1ccccc1)C(=O)N[C@@H](CO)C(=O)N[C@@H](Cc1ccccc1)C(=O)N[C@@H](CCCCN)C(=O)N[C@@H](CCCCN)C(=O)N[C@@H](CC(N)=O)C(=O)N[C@@H](CCCCN)C(=O)N[C@@H](CCCCN)C(N)=O [MARCKS ED peptide] (Ac-KKKKKRFSFKKSFKLSGFSFKKNKK-NH2)
potency at α4β2 compared with α7 nAChRs (α4β2 nAChRs; IC50 comparison by F test): decreased potency; also recorded: less potent inhibition | dissociation from α4β2 nAChRs relative to α7 (α4β2 nAChRs; [5]): appears to dissociate more rapidly from heteromeric nAChRs | inhibition not because of open channel block (α7 nAChRs [2]; 1 µM peptide, +30 vs -60 mV): 86% | voltage-dependent part of the inhibition (α7 nAChRs [2]; 1 µM peptide, +30 vs -60 mV): 14% | onset of inhibition (α7 nAChRs [2]; 1 µM, X. laevis oocytes): rapid | voltage dependence of inhibition (α7 nAChRs [2]; +30 and -60 mV): activity- and voltage-independent; also recorded: voltage- and activity-independent | inhibition of ACh-evoked α7 nAChR responses (in words) (α7 nAChRs [2]; X. laevis oocytes): completely inhibited | washout / recovery from inhibition (α7 nAChRs [2]; X. laevis oocytes): slow and slow recovery during washout and slow to recover with washout | activity (use) dependence of inhibition (α7 nAChRs [2]; peptide bath applied 10 min without ACh stimulation, then ACh): activity- and voltage-independent; also recorded: there was not a use-dependent component of the peptide block; also recorded: voltage- and activity-independent | inhibition at 1 µM (α7 nAChRs [2]; read-out: activity-independent inhibition of α7 nAChRs): 98 ± 2% | inhibition at 1 µM (α7 nAChRs [2]; read-out: inhibition of ACh-induced α7 nAChR peak current responses): 99 ± 0.2% | inhibition at 0.1 µM (α7 nAChRs [2]; read-out: inhibition of α7 ACh responses at 100 nM): 90 ± 2% | inhibition at 1 µM (α7 nAChRs [2]; read-out: inhibition still present after washout): 82 ± 3% | block of native α7 nAChRs in hippocampal interneurons (in words) ([3]; acute rat hippocampal slices): able to block native α7 nAChRs in a dose-dependent manner | effect on baseline current in hippocampal interneurons ([3]; bath application): no effect | onset of inhibition, hippocampal slices ([3]; bath application): slow | inhibition at 1 µM ([3]; read-out: inhibition of ACh-evoked responses in hippocampal interneurons, 1 µM): 59 ± 13% | inhibition at 3 µM ([3]; read-out: inhibition of ACh-evoked responses in hippocampal interneurons, 3 µM): 92 ± 2% | inhibition at 10 µM ([3]; read-out: inhibition of ACh-evoked responses in hippocampal interneurons, 10 µM): 100% | recovery of responses after washout, hippocampal slices ([3]; within 20 min of washout, two to three interneurons): do not recover after MARCKS ED peptide inhibition | potency at α2β2 compared with α7 nAChRs (α2β2 nAChRs; IC50 comparison by F test): decreased potency; also recorded: less potent inhibition | dissociation from α2β2 nAChRs relative to α7 (α2β2 nAChRs; [5]): appears to dissociate more rapidly from heteromeric nAChRs

β-Amyloid1–42: brain-derived peptide β-amyloid1–42
effect on α7 nAChRs (α7 nAChRs [4]; ref Dineley et al., 2002, Dougherty et al., 2003): agonism | effect on α7 nAChRs (α7 nAChRs [4]; ref Liu et al., 2001, Grassi et al., 2003): almost complete antagonism | effect on α7 nAChRs (α7 nAChRs [4]; ref Pettit et al., 2001, Lamb et al., 2005): minimal to no antagonism

MARCKS_(154–165) peptide
percentage block of ACh-evoked α7 nAChR current in oocytes, peptide 1 µM [1]: 12%

MARCKS159–165: truncated form of the MARCKS ED peptide, purchased from AnaSpec (SFKKSFK; UniProt P29966 159-165, looked up, fragment)
inhibition of ACh-evoked α7 nAChR responses (in words) (α7 nAChRs [2]; X. laevis oocytes): unable to significantly inhibit α7 nAChRs

MARCKS154–165: truncated form of the MARCKS ED peptide, purchased from AnaSpec (KKKRFSFKKSFK; UniProt P29966 154-165, looked up, fragment)
inhibition of ACh-evoked α7 nAChR responses (in words) (α7 nAChRs [2]; X. laevis oocytes): unable to significantly inhibit α7 nAChRs
